Test results taken from patent US9695155B2, “Herbicidal substituted pyrimidinyloxy benzene compounds” (E. I. DU PONT DE NEMOURS AND COMPANY, priority 2013, dated 2017).

Experiments:
pigweed [1] = experiment: Test A preemergence; assay type: in vivo, Amaranthus retroflexus
Summary of the method: (§1)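 Greenhouse pot test, loam/sand soil. Formulation: non-phytotoxic solvent mix plus surfactant. Pre: directed spray onto soil after sowing. Post: plants at 1–2 leaf, 2–10 cm. Rated visually vs untreated controls at ~10 d, 0 (no effect) to 100 (complete control).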

wheat = experiment: Test A preemergence; assay type: in vivo, Triticum aestivum
Summary of the method: as §1

large (Lg) crabgrass = experiment: Test A postemergence; assay type: in vivo, Digitaria sanguinalis; settings: 0 to 100 scale where 0 is no effect and 100 is complete control
Summary of the method: as §1

giant foxtail = experiment: Test A postemergence; assay type: in vivo, Setaria faberii; settings: Setaria faberi, post-emergence, 240 h, 0 to 100 scale where 0 is no effect and 100 is complete control
Summary of the method: as §1

velvetleaf = experiment: Test A postemergence; assay type: in vivo, Abutilon theophrasti; settings: 0 to 100 scale where 0 is no effect and 100 is complete control
Summary of the method: as §1

corn = experiment: Test A postemergence; assay type: in vivo, Zea mays; settings: Zea mays, post-emergence, 240 h, 0 to 100 scale where 0 is no effect and 100 is complete control
Summary of the method: as §1

lambsquarters [2] = experiment: Test C preemergence; assay type: in vivo, Chenopodium album; settings: Chenopodium album, pre-emergence, preemergence, read-out: Lambsquarters plant response rating
Summary of the method: (§2)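 Preemergence: seeds sown in a loam soil–sand blend and sprayed with test chemical in a non-phytotoxic solvent mixture containing surfactant. Postemergence: plants at 2 to 18 cm (1- to 4-leaf stage) in peat-based medium, treated with the same formulation. Greenhouse 13 to 15 days, then visual rating 0 (no effect) to 100 (complete control).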

yellow nutsedge = experiment: Test C preemergence; assay type: in vivo, Cyperus esculentus; settings: Cyperus, pre-emergence, preemergence, read-out: Nutsedge, Yellow plant response rating
Summary of the method: as §2

pigweed [3] = experiment: Test C preemergence; assay type: in vivo, Amaranthus retroflexus; settings: Amaranthus retroflexus, pre-emergence, preemergence, read-out: Pigweed plant response rating
Summary of the method: as §2

ragweed = experiment: Test C preemergence; assay type: in vivo, Ambrosia elatior; settings: Ambrosia artemisiifolia, pre-emergence, preemergence, read-out: Ragweed plant response rating
Summary of the method: as §2

waterhemp = experiment: Test C preemergence; assay type: in vivo, Amaranthus rudis; settings: Amaranthus tuberculatus, pre-emergence, preemergence, read-out: Waterhemp plant response rating
Summary of the method: as §2

galium = experiment: Test C postemergence; assay type: in vivo, Galium aparine; settings: Galium, post-emergence
Summary of the method: as §2

lambsquarters [4] = experiment: Test C postemergence; assay type: in vivo, Chenopodium album
Summary of the method: as §2

morningglory = experiment: Test C postemergence; assay type: in vivo, Ipomoea coccinea
Summary of the method: as §2

kochia = experiment: Test C postemergence; assay type: in vivo, Kochia scoparia; settings: Bassia scoparia, post-emergence
Summary of the method: as §2

[5] = 16 g ai/ha, scale 0 to 100 (0 no effect, 100 complete control)
[6] = 62 g ai/ha, scale 0 (no effect) to 100 (complete control)
[7] = 125 g ai/ha, scale 0 (no effect) to 100 (complete control)
[8] = 31 g ai/ha, postemergence, visual rating, scale 0 to 100 (0 no effect, 100 complete control), 13 to 15 days

FC(F)(F)c1cn(-c2ccccc2Oc2ncc(Cl)cn2)nn1 [Compound 166, 5-chloro-2-[2-[4-(trifluoromethyl)-1H-1,2,3-triazol-1-yl]phenoxy]pyrimidine]
Pigweed plant response rating (0 to 100 scale) (pigweed [1]; 125 g ai/ha): 100 | pest or weed control at 500 g/ha (pigweed [1]; Amaranthus retroflexus, pre-emergence, 240 h, 500 g ai/ha, 0 to 100 scale where 0 is no effect and 100 is complete control, read-out: Pigweed plant response rating): 100% | Wheat plant response rating (0 to 100 scale) (wheat; 125 g ai/ha): 50 | plant injury at 500 g/ha (wheat; Triticum aestivum, pre-emergence, 240 h, 500 g ai/ha, 0 to 100 scale where 0 is no effect and 100 is complete control, read-out: Wheat plant response rating): 80% | Crabgrass, Large plant response rating (large (Lg) crabgrass; 125 g ai/ha): 90 | pest or weed control at 500 g/ha (large (Lg) crabgrass; Digitaria sanguinalis, post-emergence, 240 h, 500 g ai/ha, read-out: Plant response rating, Crabgrass, Large): 100% | pest or weed control at 125 g/ha (giant foxtail; 125 g ai/ha, read-out: Foxtail, Giant plant response rating): 90% | pest or weed control at 500 g/ha (giant foxtail; 500 g ai/ha, read-out: Plant response rating, Foxtail, Giant): 90% | Velvetleaf plant response rating (velvetleaf; 125 g ai/ha): 100 | pest or weed control at 500 g/ha (velvetleaf; Abutilon theophrasti, post-emergence, 240 h, 500 g ai/ha, read-out: Plant response rating, Velvetleaf): 100% | plant injury at 125 g/ha (corn; 125 g ai/ha, read-out: Corn plant response rating): 50% | Corn plant response rating (crop injury, 0 = no effect, 100 = complete kill) at 500 g/ha (corn; 500 g ai/ha): 60% | pest or weed control at 16 g/ha (lambsquarters [2]; [5]): 90% | pest or weed control at 62 g/ha (lambsquarters [2]; [6]): 98% | pest or weed control at 125 g/ha (lambsquarters [2]; [7]): 98% | pest or weed control at 16 g/ha (yellow nutsedge; [5]): 0% | pest or weed control at 62 g/ha (yellow nutsedge; [6]): 35% | pest or weed control at 125 g/ha (yellow nutsedge; [7]): 80% | pest or weed control at 16 g/ha (pigweed [3]; [5]): 100% | pest or weed control at 62 g/ha (pigweed [3]; [6]): 100% | pest or weed control at 125 g/ha (pigweed [3]; [7]): 100% | pest or weed control at 16 g/ha (ragweed; [5]): 50% | pest or weed control at 62 g/ha (ragweed; [6]): 95% | pest or weed control at 125 g/ha (ragweed; [7]): 95% | pest or weed control at 16 g/ha (waterhemp; [5]): 100% | pest or weed control at 62 g/ha (waterhemp; [6]): 100% | pest or weed control at 125 g/ha (waterhemp; [7]): 100% | pest or weed control at 16 g/ha (galium; 16 g ai/ha, postemergence, 0 is no effect, 100 is complete control, read-out: Plant response rating (0 to 100), Galium): 80% | pest or weed control at 31 g/ha (galium; 31 g ai/ha, postemergence, visual rating, scale 0 to 100 (0 no effect, 100 complete control), 13 to 15 days, read-out: Galium plant response rating): 85% | pest or weed control at 125 g/ha (galium; 125 g ai/ha, postemergence, visual rating, scale 0 to 100 (0 no effect, 100 complete control), read-out: Plant response rating, Galium): 95% | pest or weed control at 62 g/ha (galium; Postemergence, 62 g ai/ha, scale 0 to 100 (0 no effect, 100 complete control), read-out: Plant response rating, Galium): 90% | Lambsquarters plant response rating (lambsquarters [4]; [8]): 80 | pest or weed control at 16 g/ha (lambsquarters [4]; Chenopodium album, post-emergence, 16 g ai/ha, postemergence, 0 is no effect, 100 is complete control, read-out: Plant response rating (0 to 100), Lambsquarters): 40% | pest or weed control at 125 g/ha (lambsquarters [4]; Chenopodium album, post-emergence, 125 g ai/ha, postemergence, visual rating, scale 0 to 100 (0 no effect, 100 complete control), read-out: Plant response rating, Lambsquarters): 98% | pest or weed control at 62 g/ha (lambsquarters [4]; Chenopodium album, post-emergence, Postemergence, 62 g ai/ha, scale 0 to 100 (0 no effect, 100 complete control), read-out: Plant response rating, Lambsquarters): 95% | Morningglory plant response rating (morningglory; [8]): 70 | pest or weed control at 16 g/ha (morningglory; Ipomoea, post-emergence, 16 g ai/ha, postemergence, 0 is no effect, 100 is complete control, read-out: Plant response rating (0 to 100), Morningglory): 85% | pest or weed control at 125 g/ha (morningglory; Ipomoea, post-emergence, 125 g ai/ha, postemergence, visual rating, scale 0 to 100 (0 no effect, 100 complete control), read-out: Plant response rating, Morningglory): 95% | pest or weed control at 62 g/ha (morningglory; Ipomoea, post-emergence, Postemergence, 62 g ai/ha, scale 0 to 100 (0 no effect, 100 complete control), read-out: Plant response rating, Morningglory): 85% | pest or weed control at 16 g/ha (kochia; 16 g ai/ha, postemergence, 0 is no effect, 100 is complete control, read-out: Plant response rating (0 to 100), Kochia): 90% | pest or weed control at 31 g/ha (kochia; 31 g ai/ha, postemergence, visual rating, scale 0 to 100 (0 no effect, 100 complete control), 13 to 15 days, read-out: Kochia plant response rating): 90% | pest or weed control at 125 g/ha (kochia; 125 g ai/ha, postemergence, visual rating, scale 0 to 100 (0 no effect, 100 complete control), read-out: Plant response rating, Kochia): 100% | pest or weed control at 62 g/ha (kochia; Postemergence, 62 g ai/ha, scale 0 to 100 (0 no effect, 100 complete control), read-out: Plant response rating, Kochia): 90%
